We go through 67 compounds from the PolyMetriX glass transition set.

The compound `*/C=C(/*)c1ccccc1C(F)(F)F` (repeat unit) yielded a glass transition temperature of 130.00 °C.

As to `*/N=N/c1ccc(Nc2ccc(C(=O)c3ccc(Nc4ccc(*)cc4)cc3)cc2)cc1` (repeat unit), the glass transition temperature is 216.42 °C.

As for `*C(=O)Nc1cccc2cccc(N3C(=O)CC(N4C(=O)c5ccc(*)cc5C4=O)C3=O)c12` (repeat unit), the glass transition temperature is 193.00 °C.

With `*C(=O)OC1CC2CC(OC(=O)N3CCN(*)CC3)CC(C1)O2` (repeat unit), the glass transition temperature stood at 113.00 °C.

`*C(=O)Oc1ccc(-c2ccc(OC(=O)c3ccc4c(c3)C(=O)N(c3ccc(-c5ccc(N6C(=O)c7ccc(*)cc7C6=O)cc5C)c(C)c3)C4=O)cc2C)c(C)c1` (repeat unit) returned a glass transition temperature of 177.00 °C.

As to `*C(=O)Oc1ccc(OC(=O)c2ccc3c(c2)C(=O)N(c2ccc(Oc4ccc(N5C(=O)c6ccc(*)cc6C5=O)cc4)cc2)C3=O)c(C(C)(C)C)c1` (repeat unit), the glass transition temperature came out at 189.00 °C.

Consider `*C(=O)c1ccc2c(c1)C(=O)N(c1ccc(Cc3ccc(C(=O)c4ccc(N5C(=O)c6ccc(*)cc6C5=O)cc4)cc3)cc1)C2=O` (repeat unit), for which the glass transition temperature came to 307.00 °C.

`*CC(COC(=O)O*)OCCCCCCCCCCCOc1ccc(/C=C/c2ccc([N+](=O)[O-])cc2)cc1` (repeat unit) returned a glass transition temperature of 21.00 °C.

`*CC(COC(=O)O*)OCCCCOc1ccc(/C=C/c2ccc([N+](=O)[O-])cc2)cc1` (repeat unit): the glass transition temperature stood at 42.00 °C.

Compound `*CC(F)(F)C(F)(F)C(F)(F)COC(=O)c1cccc(C(=O)O*)c1` (repeat unit) yielded a glass transition temperature of 23.50 °C.

As to `*CC(O)COC(=O)C1CCC(C(=O)OCC(O)COc2ccc(C3(c4ccc(O*)cc4)c4ccccc4-c4ccccc43)cc2)CC1` (repeat unit), the glass transition temperature came out at 110.00 °C.

Regarding `*CCCCC(=O)Oc1ccc(OC(=O)c2ccc3c(c2)C(=O)N(*)C3=O)c(C)c1` (repeat unit), the glass transition temperature turned out to be 75.76 °C.

For `*CCCCCCC(=O)Oc1ccc(OC(=O)c2ccc3c(c2)C(=O)N(*)C3=O)c(C)c1` (repeat unit), the glass transition temperature is 57.21 °C.

For `*CCCCCCOc1ccc(C(=O)N(C(=O)c2ccc(O*)cc2)c2cc(C)cc(C)c2)cc1` (repeat unit), the glass transition temperature was 75.00 °C.

For the compound `*CCCCCCOc1ccc(C(=O)OC(=O)c2ccc(O*)cc2)cc1` (repeat unit), the glass transition temperature is 47.00 °C.

In the case of `*CCCCOc1cccc(C(=O)OC(=O)c2cccc(O*)c2)c1` (repeat unit), the glass transition temperature is 20.00 °C.

Turning to `*CCCOc1ccc(C(=O)OC(=O)c2ccc(O*)cc2)cc1` (repeat unit), the glass transition temperature turned out to be 95.00 °C.

In turn, `*CCCOc1cccc(C(=O)OC(=O)c2cccc(O*)c2)c1` (repeat unit) displayed a glass transition temperature of 53.00 °C.

As to `*OC(*)C` (repeat unit), the glass transition temperature is -19.50 °C.

In the case of `*OC(*)CCC` (repeat unit), the glass transition temperature was -41.00 °C.

Compound `*OC(=O)C1CCC(C(=O)OC2COC3C(*)COC23)CC1` (repeat unit) had a glass transition temperature of 121.00 °C.

For `*OC(=O)OCC(O)C(O)COC(=O)OC1COC2C(*)COC12` (repeat unit), the glass transition temperature stood at 78.50 °C.

In the case of `*OC(=O)c1ccc(C(=O)OC2CC3CC(*)CC(C2)O3)cc1` (repeat unit), the glass transition temperature worked out at 207.00 °C.

On to `*OC(=O)c1ccc(C(=O)OC2COC3C(*)COC23)cc1` (repeat unit), for which the glass transition temperature turned out to be 255.50 °C.

Consider `*OC(=O)c1ccc(C(=O)OC2COC3C(*)COC23)o1` (repeat unit), for which the glass transition temperature came to 192.50 °C.

On to `*OC(=O)c1ccc(CCCCc2ccc(C(*)=O)cc2)cc1` (repeat unit), for which the glass transition temperature was found to be 46.00 °C.

For `*OC(=O)c1cccc(OCCCCCCCCCCOc2cccc(C(=O)OC3COC4C(*)COC34)c2)c1` (repeat unit), the glass transition temperature worked out at 30.00 °C.

The compound `*OC(=O)c1cccc(OCCCCCCCCOc2cccc(C(=O)OC3COC4C(*)COC34)c2)c1` (repeat unit) returned a glass transition temperature of 33.00 °C.

The compound `*OC(=O)c1cccc(OCCCCCCOc2cccc(C(=O)OC3COC4C(*)COC34)c2)c1` (repeat unit) displayed a glass transition temperature of 43.50 °C.

Take `*OC(C)C(=O)OCC(*)=O` (repeat unit): the glass transition temperature amounted to 43.00 °C.

For the compound `*OC(CC)C(*)=O` (repeat unit), the glass transition temperature came to 15.00 °C.

Turning to `*OC(CCl)COC(=O)C1=C(C(=O)OCC(CCl)OC(=O)c2ccc(C(*)=O)cc2)C2C=CC1C2` (repeat unit), the glass transition temperature worked out at 72.00 °C.

As for `*OC(F)(F)C(*)(F)F` (repeat unit), the glass transition temperature was -48.00 °C.

In the case of `*OC(F)(F)COC(=O)c1cccc(C(F)(F)C(F)(F)C(F)(F)c2cccc(C(=O)OCC(*)(F)F)c2)c1` (repeat unit), the glass transition temperature was found to be 30.00 °C.

In turn, `*OC1C(C)(C)C(OC(=O)c2ccc(C(*)=O)cc2)C1(C)C` (repeat unit) came in with a glass transition temperature of 184.00 °C.

`*OC1C(COC(=O)Nc2ccccc2)OC(*)C(OC(=O)Nc2ccccc2)C1OC(=O)Nc1ccccc1` (repeat unit) displayed a glass transition temperature of 217.00 °C.

The compound `*OC1C(COC(C)=O)OC(*)C(OC(C)=O)C1OC(C)=O` (repeat unit) had a glass transition temperature of 178.00 °C.

`*OC1CCC(OC(*)=O)CC1` (repeat unit) came in with a glass transition temperature of 138.00 °C.

The compound `*OC1CCC(OC(=O)C(*)=O)CC1` (repeat unit) yielded a glass transition temperature of 139.60 °C.

The compound `*OC1CCC(OC(=O)c2ccc(C(*)=O)cc2)CC1` (repeat unit) came in with a glass transition temperature of 94.30 °C.

Regarding `*OC1CCCCC1*` (repeat unit), the glass transition temperature turned out to be 68.50 °C.

`*OC1CCCCC1OC(*)=O` (repeat unit) gave a glass transition temperature of 117.30 °C.

`*OCC(F)(F)C(F)(F)C(F)(F)COc1nc(F)nc(*)c1F` (repeat unit) returned a glass transition temperature of 0.00 °C.

Turning to `*ON(C(F)(F)F)C(F)(Cl)C(*)(F)F` (repeat unit), the glass transition temperature was -50.00 °C.

Compound `*OP(=O)(Oc1ccc(Br)cc1)OC(CCl)COc1ccc(S(=O)(=O)c2ccc(OCC(*)CCl)cc2)cc1` (repeat unit) registered a glass transition temperature of 58.00 °C.

Turning to `*O[Si](C)(C)O[Si](C)(C)O[Si](C)(C)O[Si](C)(C)OC1=C(*)c2cccc3cccc1c23` (repeat unit), the glass transition temperature is -43.00 °C.

`*Oc1cc(C)cc(OC(=O)c2cccc(C(*)=O)c2)c1` (repeat unit) returned a glass transition temperature of 163.00 °C.

For the compound `*Oc1cc(CC)cc(OC(=O)c2cccc(C(*)=O)c2)c1` (repeat unit), the glass transition temperature stood at 138.00 °C.

Compound `*Oc1cc(CCCCCC)cc(OC(=O)c2cccc(C(*)=O)c2)c1` (repeat unit) yielded a glass transition temperature of 67.50 °C.

On to `*Oc1cc(CCCCCCCC)cc(OC(=O)c2cccc(C(*)=O)c2)c1` (repeat unit), for which the glass transition temperature amounted to 50.50 °C.

In the case of `*Oc1cc(CCCCCCCCC)cc(OC(=O)c2cccc(C(*)=O)c2)c1` (repeat unit), the glass transition temperature is 41.50 °C.

In turn, `*Oc1cc(OC(=O)c2ccc(OCC(C)CC)cc2)c(OC(=O)CCCC(*)=O)cc1OC(=O)c1ccc(OCC(C)CC)cc1` (repeat unit) displayed a glass transition temperature of 60.00 °C.

For `*Oc1cc(OC(=O)c2ccc(OCC)cc2)c(OC(=O)CCCC(*)=O)cc1OC(=O)c1ccc(OCC)cc1` (repeat unit), the glass transition temperature is 71.00 °C.

Regarding `*Oc1cc(OC(=O)c2ccc(OCCCC)cc2)c(OC(=O)C(C)CCC(*)=O)cc1OC(=O)c1ccc(OCCCC)cc1` (repeat unit), the glass transition temperature was determined as 55.00 °C.

`*Oc1cc(OC(=O)c2ccc(OCCCC)cc2)c(OC(=O)CCCCCC(*)=O)cc1OC(=O)c1ccc(OCCCC)cc1` (repeat unit) returned a glass transition temperature of 45.00 °C.

On to `*Oc1ccc(-c2ccc(OC(=O)OC3C(C)(C)C(OC(*)=O)C3(C)C)cc2)cc1` (repeat unit), for which the glass transition temperature is 165.00 °C.

Compound `*Oc1ccc(C(c2ccccc2)(c2ccccc2)c2ccc(OC(=O)OC3C(C)(C)C(OC(*)=O)C3(C)C)cc2)cc1` (repeat unit) displayed a glass transition temperature of 161.00 °C.

In turn, `*Oc1ccc(C2(c3ccc(OC(=O)OC4C(C)(C)C(OC(*)=O)C4(C)C)cc3)CC3CCC2C3)cc1` (repeat unit) came in with a glass transition temperature of 184.00 °C.

With `*Oc1ccc(OC(=O)c2ccc(-c3ccc(C(*)=O)cc3)cc2-c2ccccc2)cc1C(C)(C)c1ccccc1` (repeat unit), the glass transition temperature came out at 146.00 °C.

With `*Oc1ccc(S(=O)(=O)c2ccc(OC(=O)OC3C(C)(C)C(OC(*)=O)C3(C)C)cc2)cc1` (repeat unit), the glass transition temperature came out at 162.00 °C.

Turning to `*Oc1ccc(Sc2ccc(OC(=O)OC3C(C)(C)C(OC(*)=O)C3(C)C)cc2)cc1` (repeat unit), the glass transition temperature is 107.00 °C.

As for `*Oc1ccc2c(c1)C1(CC2(C)C)CC(C)(C)c2ccc(OC(*)=O)cc21` (repeat unit), the glass transition temperature turned out to be 228.00 °C.

In turn, `*Oc1ccc2c(c1)C1(CC2(C)C)CC(C)(C)c2ccc(OC(=O)c3ccc(C(*)=O)cc3)cc21` (repeat unit) returned a glass transition temperature of 290.00 °C.

Take `*Oc1ccc2c(c1)C1(CC2(C)C)CC(C)(C)c2ccc(OC(=O)c3cccc(C(*)=O)c3)cc21` (repeat unit): the glass transition temperature is 245.00 °C.

In the case of `*c1ccc(Oc2ccc(-c3cccc4c3C(=O)N(Oc3ccc(C(=O)c5ccc(Oc6cccc7c6C(=O)N(*)C7=O)cc5)cc3)C4=O)cc2)cc1` (repeat unit), the glass transition temperature turned out to be 252.00 °C.

Consider `*c1ccc(Oc2ccc(C(=O)c3ccc(Oc4ccc(-c5c6c(c(*)c7ccccc57)C(=O)N(c5ccc(C(F)(F)F)cc5)C6=O)cc4)cc3)cc2)cc1` (repeat unit), for which the glass transition temperature was determined as 260.00 °C.

As for `*c1cccc(C(=O)Nc2cccc(S(=O)(=O)c3cccc(NC(=O)c4cccc(N5C(=O)c6ccc(-c7ccc8c(c7)C(=O)N(*)C8=O)cc6C5=O)c4)c3)c2)c1` (repeat unit), the glass transition temperature was 247.00 °C.
